# Laboratory results published in US9446018B2, “Pharmaceutical composition for treating or preventing angina or myocardial infarction induced by myocardial ischemia” (SINPHAR TIAN-LI PHARMACEUTICAL CO., LTD. (HANGZHOU), priority 2009, dated 2016).
# Test system: myocardial cells (death induced from partial myocardial ischemia)
# Assay: Embodiment 1: myocardial infarct size after 1 h ligature of the left descending coronary branch and 1 h reperfusion (TTC staining)
# Format: in vivo, Crl:CD(SD) SPF rats
Structure (SMILES),"effect on myocardial infarct size compared with the blank control group (in words) (Embodiment 1, Table 1, STA-2 alone in high dose or in low dose)","Myocardial Infarction Percentage (%) (rat, tube-fed once daily 7 days + IP 1/3 dose after ligation, isosorbide dinitrate 18.75 mg/Kg, STA-2 low dose 250 mg/Kg, Aspirin 8.3 mg/Kg, mean ± SEM)","effect on myocardial infarct size compared with the blank control group (in words) (rat, in vivo)"
CC(=O)Oc1ccccc1C(=O)O [Aspirin],did not produce any statistically meaningful effects,14.75 ± 2.8%,
O=[N+]([O-])O[C@H]1CO[C@H]2[C@@H]1OC[C@H]2O[N+](=O)[O-] [isosorbide dinitrate],,,significant reduction in myocardial infarct size
